From patent US7396837B2, “Antitumoral analogs of lamellarins” (Pharma Mar, S.A.U., priority 2002, dated 2008)

Legend:
Type in all cases: cell-based
A-549 = assay: SRB colorimetric cell growth inhibition assay, A-549; conditions: Homo sapiens
Method in brief: (§1)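 After uninterrupted treatment, cultures are fixed and stained with sulforhodamine B, and absorbance reflects cell growth and viability. Each value represents the average of triplicate wells with SD.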

SK-BR-3 = assay: SRB colorimetric cell growth inhibition assay, SK-BR-3
Method in brief: as §1

IGROV = assay: SRB colorimetric cell growth inhibition assay, IGROV; conditions: IGROV
Method in brief: as §1

SKOV-3 = assay: SRB colorimetric cell growth inhibition assay, SKOV-3; conditions: Homo sapiens
Method in brief: (§2)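 Sulforhodamine B colorimetric assay of cell growth and viability, mean ± SD of triplicate wells. Parameters derived: GI (growth inhibition), TGI (total growth inhibition, cytostatic) and LC (cell killing, cytotoxic).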

IGROV-ET = assay: SRB colorimetric cell growth inhibition assay, IGROV-ET (ET-743 resistant); conditions: Homo sapiens
Method in brief: as §1

LoVo = assay: SRB colorimetric cell growth inhibition assay, LoVo; conditions: Homo sapiens, LoVo
Method in brief: as §1

LoVo-Dox = assay: SRB colorimetric cell growth inhibition assay, LoVo-Dox (MDR); conditions: Homo sapiens
Method in brief: as §1

HT-29 = assay: SRB colorimetric cell growth inhibition assay, HT-29
Method in brief: as §1

PANC-1 = assay: SRB colorimetric cell growth inhibition assay, PANC-1; conditions: Homo sapiens
Method in brief: as §1

K-562 = assay: SRB colorimetric cell growth inhibition assay, K-562
Method in brief: as §1

SK-MEL-28 = assay: SRB colorimetric cell growth inhibition assay, SK-MEL-28
Method in brief: as §1

LNCaP = assay: SRB colorimetric cell growth inhibition assay, LNCaP; conditions: Homo sapiens, LNCaP
Method in brief: as §1

[1] = SRB colorimetric cell growth inhibition assay, H-MEC-1; conditions: human
Method in brief: as §2

H-MEC-1 = assay: as above; conditions: Homo sapiens, HMEC-1, H-MEC-1
Method in brief: as §2

DU-145 = assay: SRB colorimetric cell growth inhibition assay, DU-145
Method in brief: as §1

SMILES: COc1cc(-c2c3n(c4c(=O)oc5cc(OC(=O)[C@@H](N)C(C)C)c(OC)cc5c24)CCc2cc(OC(=O)[C@@H](N)C(C)C)c(OC)cc2-3)ccc1OC(=O)[C@@H](N)C(C)C [Compound 37]
- GI50 (A-549; A549, A-549, GI=growth inhibition, read-out: GI50 A-549): 1720 nM
- IC (TGI) (A-549; A549, A-549, TGI=total growth inhibition (cytostatic effect), read-out: TGI A-549): 3.8 µM
- CC50 (A-549; A549, read-out: LC50 A-549, A-549, LC=cell killing (cytotoxic effect)): 8.38 µM
- IC (TGI) (SK-BR-3; Homo sapiens, SK-BR-3, SK-BR-3, total growth inhibition (cytostatic effect), read-out: TGI SK-BR-3): 2.12 µM
- CC50 (SK-BR-3; Homo sapiens, SK-BR-3, read-out: LC50 SK-BR-3, SK-BR-3, cell killing (cytotoxic effect)): 10.6 µM
- GI50 (SK-BR-3; SK-BR-3, GI=growth inhibition, read-out: GI50 SK-BR-3): 57.6 nM
- CC50 (IGROV; Homo sapiens, read-out: LC50 IGROV, IGROV, cell killing (cytotoxic effect)): 5.89 µM
- GI50 (IGROV; GI=growth inhibition, read-out: GI50 IGROV): 577 nM
- TGI IGROV (IGROV; total growth inhibition (cytostatic effect)): 2.17E−06 Molar
- GI50 (SKOV-3; SK-OV-3, SKOV-3, GI=growth inhibition, read-out: GI50 SKOV-3): 1620 nM
- LC50 (concentration causing 50% net cell killing) (SKOV-3; SK-OV-3, read-out: LC50 SKOV-3): 7.87 µM
- IC (TGI) (SKOV-3; SK-OV-3, SKOV-3, total growth inhibition (cytostatic effect), read-out: TGI SKOV-3): 3.58 µM
- GI50 (IGROV-ET; IGROV-ET, GI=growth inhibition, read-out: GI50 IGROV-ET): 359 nM
- IC (TGI) (IGROV-ET; IGROV-ET, total growth inhibition (cytostatic effect), read-out: TGI IGROV-ET): 2.11 µM
- CC50 (IGROV-ET; read-out: LC50 IGROV-ET, IGROV-ET, cell killing (cytotoxic effect)): 8.04 µM
- CC50 (LoVo; read-out: LC50 LOVO, LOVO, LC=cell killing (cytotoxic effect)): 10.8 µM
- GI50 (LoVo; GI=growth inhibition, read-out: GI50 LOVO): 1790 nM
- IC (TGI) (LoVo; TGI=total growth inhibition (cytostatic effect), read-out: TGI LOVO): 4.4 µM
- GI50 (LoVo-Dox; LOVO-DOX, GI=growth inhibition, read-out: GI50 LOVO-DOX): 2100 nM
- IC (TGI) (LoVo-Dox; LOVO-DOX, TGI=total growth inhibition (cytostatic effect), read-out: TGI LOVO-DOX): 4.6 µM
- CC50 (LoVo-Dox; read-out: LC50 LOVO-DOX, LOVO-DOX, LC=cell killing (cytotoxic effect)): 10.1 µM
- GI50 (HT-29; HT-29, GI=growth inhibition, read-out: GI50 HT-29): 91.2 nM
- IC (TGI) (HT-29; Homo sapiens, HT-29, HT-29, TGI=total growth inhibition (cytostatic effect), read-out: TGI HT-29): 2 µM
- CC50 (HT-29; Homo sapiens, HT-29, read-out: LC50 HT-29, HT-29, LC=cell killing (cytotoxic effect)): 10.9 µM
- GI50 (PANC-1; PANC-1, PANC-1, GI=growth inhibition, read-out: GI50 PANC-1): 2150 nM
- IC (TGI) (PANC-1; PANC-1, PANC-1, TGI=total growth inhibition (cytostatic effect), read-out: TGI PANC-1): 11 µM
- CC50 (PANC-1; PANC-1, read-out: LC50 PANC-1, PANC-1, LC=cell killing (cytotoxic effect)): 11 µM
- IC (TGI) (K-562; Homo sapiens, K562, K-562, TGI=total growth inhibition (cytostatic effect), read-out: TGI K-562): 1.97 µM
- CC50 (K-562; Homo sapiens, K562, read-out: LC50 K-562, K-562, LC=cell killing (cytotoxic effect)): 7.53 µM
- GI50 (K-562; K-562, GI=growth inhibition, read-out: GI50 K-562): 12.4 nM
- IC (TGI) (SK-MEL-28; Homo sapiens, SK-MEL-28, MEL-28, total growth inhibition (cytostatic effect), read-out: TGI MEL-28): 2.68 µM
- CC50 (SK-MEL-28; Homo sapiens, SK-MEL-28, read-out: LC50 MEL-28, MEL-28, cell killing (cytotoxic effect)): 7.95 µM
- GI50 (SK-MEL-28; MEL-28, GI=growth inhibition, read-out: GI50 MEL-28): 623 nM
- GI50 (LNCaP; LN-caP, GI=growth inhibition, read-out: GI50 LN-caP): 593 nM
- IC (TGI) (LNCaP; LN-caP, total growth inhibition (cytostatic effect), read-out: TGI LN-caP): 2.18 µM
- CC50 (LNCaP; read-out: LC50 LN-caP, LN-caP, cell killing (cytotoxic effect)): 5.05 µM
- LC50 (concentration giving 50% net cell killing) [1]: 4.73 µM
- GI50 (H-MEC-1; GI=growth inhibition, read-out: GI50 H-MEC-1): 97.4 nM
- IC (TGI) (H-MEC-1; total growth inhibition (cytostatic effect), read-out: TGI H-MEC-1): 1.26 µM
- GI50 (DU-145; DU-145, GI=growth inhibition, read-out: GI50 DU-145): 67.7 nM
- TGI DU-145 (DU-145; DU-145, total growth inhibition (cytostatic effect)): 1.55E−06 Molar
- CC50 (DU-145; Homo sapiens, DU-145, read-out: LC50 DU-145, DU-145, cell killing (cytotoxic effect)): 5.62 µM
